We go through 4 molecules from patent US6521631B2, “Heterocyclic sulfonamides” (Hoffmann-La Roche Inc., priority 1999, dated 2003).

For orientation: melting point means the temperature, or range, at which the solid turns liquid. One may read the EC50 as the concentration that produces a half-maximal response.

Where only a bound is given, the exact number is not on record here.

One data set deals with isolated rat aorta rings. To be noted: for pA2: shift to the right of the endothelin-1 dosage-activity curve, endothelium-denuded thorax aorta rings.
In the next data set the target is T1, human ETA receptors (Homo sapiens, UniProt P25101).
T1 construct: made in house; host or cells: Baculovirus-infected insect cells (membrane preparation)
T1 sequence (P25101 21-427): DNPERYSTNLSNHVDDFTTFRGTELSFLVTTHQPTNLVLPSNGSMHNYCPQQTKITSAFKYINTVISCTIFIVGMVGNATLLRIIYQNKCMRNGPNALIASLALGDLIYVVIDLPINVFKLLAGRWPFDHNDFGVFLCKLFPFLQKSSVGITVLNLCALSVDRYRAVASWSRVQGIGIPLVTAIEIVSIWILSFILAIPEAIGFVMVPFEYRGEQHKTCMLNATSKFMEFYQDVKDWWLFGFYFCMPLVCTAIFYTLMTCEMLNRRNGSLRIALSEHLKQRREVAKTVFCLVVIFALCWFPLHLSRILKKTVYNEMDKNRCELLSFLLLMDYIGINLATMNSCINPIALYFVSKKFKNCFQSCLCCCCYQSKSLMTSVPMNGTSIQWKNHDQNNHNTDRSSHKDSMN
The data set is described as follows: Inhibition of 125I-endothelin binding to recombinant human ETA receptors expressed in Baculovirus-infected insect cells. To be noted: recombinant human ETA receptor membranes, 20 pM 125I-endothelin; read-out: IC50, concentration required to inhibit 50% of the specific binding of 125I-endothelin. As for the experimental part:
I. Inhibition of Endothelin Binding to Recombinant Human ETA Receptors Expressed in Baculovirus-infected Insect Cells
A cDNA coding for human ETA receptors of human placenta was cloned (M. Adachi, Y.-Y. Yang, Y. Furuichi and C. Miyamoto, BBRC 180, 1265-1272) and expressed in the Baculovirus-insect cell system. Baculovirus-infected insect cells from a 23 l fermenter are centrifuged off (3000×g, 15 minutes, 4° C.) 60 hours after the infection, re-suspended in Tris buffer (5 mM, pH 7.4, 1 mM MgCl2) and again centrifuged. After a further re-suspension and centrifugation the cells are suspended in 800 ml of the same buffer and freeze-dried at −120° C. The cells disintegrate when the suspension in this hypotonic buffer mixture is thawed. After a repeated […]/thawing cycle the suspension is homogenised and centrifuged (25000×g, 15 minutes, 4° C.). After suspension in Tris buffer (75 mM, pH 7.4, 25 mM MgCl2, 250 mM sucrose) 1 ml aliquots (protein content about 3.5 mg/ml) are stored at −85° C.
For the binding assay, the freeze-dried membrane preparations are thawed and, after centrifugation at 20° C. and 25000 g for 10 minutes, re-suspended in assay buffer (50 mM Tris buffer, pH 7.4, containing 25 mM MnCl2, 1 mM EDTA and 0.5% bovine serum albumin). 100 μl of this membrane suspension containing 70 μg of protein are incubated with 50 μl of ^125I-endothelin (specific activity 2200 Ci/mMol) in assay buffer (25000 cpm, final concentration 20 pM) and 100 μl of assay buffer containing varying concentrations of test compound. The incubation is carried out at 20° C. for 2 hours or at 4° C. for 24 hours. The separation of free and membrane-bound radio-ligands is carried out by filtration over a glass fibre filter. The inhibitory activity of compounds of formula (I) determined in this test procedure is given in Table 1 as the IC50, i.e. as the concentration [nM] which is required to inhibit 50% of the specific binding of ^125I-endothelin.

Experimental for isolated rat aorta rings: Inhibition of Endothelin-induced Contractions in Isolated Rat Aorta Rings
Rings with a length of 5 mm were cut out from the thorax aorta of adult Wistar-Kyoto rats. The endothelium was removed by lightly rubbing the internal surface. Each ring was immersed at 37° C. in 10 ml of Krebs-Henseleit solution in an isolated bath while gassing with 95% O2 and 5% CO2. The isometric stretching of the rings was measured. The rings were stretched to a pre-tension of 3 g. After incubation for 10 minutes with the test compound or vehicle cumulative dosages of endothelin-1 were added. […] This shift to the right (or “dose ratio”, DR) corresponds to the quotient from the EC50 values of endothelin-1 in the presence and in the absence of antagonist, with the EC50 value denoting the endothelin concentration required for a half-maximum contraction.
The corresponding pA2 value, which is a measure of the activity of the test compound, was calculated using a computer programme according to the following equation from the “dose ratio” DR for each individual dosage-activity curve.
pA2=log(DR−1)−log(antagonist-concentration)

As for `COc1ccccc1Oc1c(NS(=O)(=O)c2ccc(C)cn2)nc(-c2ccncc2)nc1OC` [Example 1, 5-methyl-pyridine-2-sulfonic acid[6-methoxy-5-(2-methoxy-phenoxy)-2-pyridin-4-yl-pyrimidin-4-yl]-amide], the pA2 entry in the data set with isolated rat aorta rings was “≧8.0”. In addition, the IC50 on human ETA receptors was no more than 50 nM. In turn, `COc1ccccc1Oc1c(NS(=O)(=O)c2ccc(C(C)C)cn2)nc(-c2ccncc2)nc1OC` [Example 2, 5-isopropyl-pyridine-2-sulfonic acid[6-methoxy-5-(2-methoxy-phenoxy)-2-pyridin-4-yl-pyrimidin-4-yl]-amide] gave a melting point of 195 to 197 °C. Moreover, the pA2 entry in the data set with isolated rat aorta rings was “≧8.0”. For the same molecule, the IC50 on human ETA receptors was no more than 50 nM. `C=C(C)c1ccc(S(=O)(=O)Nc2nc(-c3ccncc3)nc(OC)c2Oc2ccccc2OC)nc1` [Example 3, 5-isopropenyl-pyridine-2-sulfonic acid[6-methoxy-5-(2-methoxy-phenoxy)-2-pyridin-4-yl-pyrimidin-4-yl]-amide]: on human ETA receptors, the IC50 is no more than 50 nM. Turning to `CC[C@H](C)[C@H](NC(=O)[C@H](CC(=O)O)NC(=O)[C@H](CC(C)C)NC(=O)[C@H](Cc1c[nH]cn1)NC(=O)[C@@H]1CSSC[C@H](N)C(=O)N[C@@H](CO)C(=O)N[C@H]2CSSC[C@H](NC(=O)[C@H](CCC(=O)O)NC(=O)[C@H](CCCCN)NC(=O)[C@H](CC(=O)O)NC(=O)[C@H](CCSC)NC(=O)[C@H](CC(C)C)NC(=O)[C@H](CO)NC(=O)[C@H](CO)NC2=O)C(=O)N[C@@H](C(C)C)C(=O)N[C@@H](Cc2ccc(O)cc2)C(=O)N[C@@H](Cc2ccccc2)C(=O)N1)C(=O)N[C@H](C(=O)N[C@@H](Cc1c[nH]c2ccccc12)C(=O)O)[C@@H](C)CC` [endothelin, reference compound], in the data set on isolated rat aorta rings (read-out: EC50 of endothelin in the absence of test compounds, endothelin concentration required for a half-maximum contraction, no antagonist), the EC50 came to 0.3 nM.
